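Grown in 96-well plates, cells were treated for 48 hours with each compound at five concentrations. Insufficient inhibition: endpoint recorded as highest concentration tested. The concentration for full growth arrest is given as TGI.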
Legend:
Assay in all cases: NCI tumour cell line growth inhibition, 48 h
[1] = test system: OVCAR-4 ovarian
[2] = test system: DU-145 prostate
[3] = test system: MALME-3M melanoma
[4] = test system: PC-3 prostate
[5] = test system: T-47D breast
[6] = test system: TK-10 renal
[7] = test system: NCI-H522 lung
[8] = test system: HT29 colon
[9] = test system: A549 NSCLC
[10] = test system: RPMI-8226 leukemia
[11] = test system: NCI-H460 lung
[12] = test system: HCC-2998 colon
[13] = test system: LOX IMVI melanoma
[14] = test system: MCF7 breast
[15] = test system: NCI-H226 lung
[16] = test system: K-562 leukemia
[17] = test system: SK-MEL-5 melanoma
[18] = test system: ACHN renal
[19] = test system: SNB-75 CNS
[20] = test system: HS 578T breast
[21] = test system: M14 melanoma
[22] = test system: RXF 393 renal
[23] = test system: 786-0 renal
[24] = test system: BT-549 breast
[25] = test system: SR leukemia
[26] = test system: HOP-62 NSCLC
[27] = test system: SK-MEL-28 melanoma
[28] = test system: MDA-N
[29] = test system: OVCAR-3 ovarian
[30] = test system: MOLT-4 leukemia
[31] = test system: SN12C renal
[32] = test system: UACC-62 melanoma
[33] = test system: SNB-19 CNS
[34] = test system: HL-60(TB) leukemia
[35] = test system: SF-268 CNS
[36] = test system: SW-620 colon
[37] = test system: A498 renal
[38] = test system: UACC-257 melanoma
[39] = test system: COLO 205 colon
[40] = test system: MDA-MB-231 breast
[41] = test system: HCT-15 colon
[42] = test system: CCRF-CEM leukemia
[43] = test system: EKVX NSCLC
[44] = test system: KM12 colon
[45] = test system: SF-539 CNS
[46] = test system: NCI-H23 lung
[47] = test system: SK-OV-3 ovarian
[48] = test system: MDA-MB-435
[49] = test system: NCI/ADR-RES ovarian
[50] = test system: CAKI-1 renal
[51] = test system: HCT-116 colon
[52] = test system: HOP-92 NSCLC
[53] = test system: UO-31 renal
[54] = test system: SF-295 CNS
[55] = test system: IGROV1 ovarian
[56] = test system: OVCAR-8 ovarian
[57] = test system: U251 CNS
[58] = test system: SK-MEL-2 melanoma
[59] = test system: OVCAR-5 ovarian

CC1C2CC(CC23OCC(CCl)O3)C1(C)C (stereo unspecified)
TGI [1]: > 100 µM
TGI [2]: > 100 µM
TGI [3]: > 100 µM
TGI [4]: > 100 µM
TGI [5]: > 100 µM
TGI [6]: > 100 µM
TGI [7]: > 100 µM
TGI [8]: > 100 µM
TGI [9]: > 100 µM
TGI [10]: > 100 µM
TGI [11]: > 100 µM
TGI [12]: > 100 µM
TGI [13]: > 100 µM
TGI [14]: > 100 µM
TGI [15]: > 100 µM
TGI [16]: > 100 µM
TGI [17]: > 100 µM
TGI [18]: > 100 µM
TGI [19]: > 100 µM
TGI [20]: > 100 µM
TGI [21]: > 100 µM
TGI [22]: > 100 µM
TGI [23]: > 100 µM
TGI [24]: > 100 µM
TGI [25]: > 100 µM
TGI [26]: > 100 µM
TGI [27]: > 100 µM
TGI [28]: > 100 µM
TGI [29]: > 100 µM
TGI [30]: > 100 µM
TGI [31]: > 100 µM
TGI [32]: > 100 µM
TGI [33]: > 100 µM
TGI [34]: > 100 µM
TGI [35]: > 100 µM
TGI [36]: > 100 µM
TGI [37]: > 100 µM
TGI [38]: > 100 µM
TGI [39]: > 100 µM
TGI [40]: > 100 µM
TGI [41]: > 100 µM
TGI [42]: > 100 µM
TGI [43]: > 100 µM
TGI [44]: > 100 µM
TGI [45]: > 100 µM
TGI [46]: > 100 µM
TGI [47]: > 100 µM
TGI [48]: > 100 µM
TGI [49]: > 100 µM
TGI [50]: > 100 µM
TGI [51]: > 100 µM
TGI [52]: > 100 µM
TGI [53]: > 100 µM
TGI [54]: > 100 µM
TGI [55]: > 100 µM
TGI [56]: > 100 µM

COc1ccc(CNc2nc3ccccc3nc2C(=O)O)cc1OC
TGI [1]: > 100 µM
TGI [2]: > 100 µM
TGI [3]: > 100 µM
TGI [4]: > 100 µM
TGI [5]: > 100 µM
TGI [6]: > 100 µM
TGI [7]: > 100 µM
TGI [8]: > 100 µM
TGI [9]: > 100 µM
TGI [10]: > 100 µM
TGI [11]: > 100 µM
TGI [12]: > 100 µM
TGI [13]: > 100 µM
TGI [14]: > 100 µM
TGI [15]: > 100 µM
TGI [57]: > 100 µM
TGI [16]: > 100 µM
TGI [17]: > 100 µM
TGI [18]: > 100 µM
TGI [19]: > 100 µM
TGI [20]: > 100 µM
TGI [22]: > 100 µM
TGI [23]: > 100 µM
TGI [24]: > 100 µM
TGI [25]: > 100 µM
TGI [26]: > 100 µM
TGI [27]: > 100 µM
TGI [28]: > 100 µM
TGI [29]: > 100 µM
TGI [30]: > 100 µM
TGI [31]: > 100 µM
TGI [32]: > 100 µM
TGI [34]: > 100 µM
TGI [35]: > 100 µM
TGI [36]: > 100 µM
TGI [37]: > 100 µM
TGI [38]: > 100 µM
TGI [39]: > 100 µM
TGI [40]: > 100 µM
TGI [41]: > 100 µM
TGI [42]: > 100 µM
TGI [43]: > 100 µM
TGI [44]: > 100 µM
TGI [45]: > 100 µM
TGI [46]: > 100 µM
TGI [47]: > 100 µM
TGI [48]: > 100 µM
TGI [49]: > 100 µM
TGI [50]: > 100 µM
TGI [51]: > 100 µM
TGI [52]: > 100 µM
TGI [53]: > 100 µM
TGI [54]: > 100 µM
TGI [55]: > 100 µM
TGI [56]: > 100 µM

Cc1ccc(S(=O)(=O)C2=C([Si](C)(C)C)C3CC2[C@@H]2C4C=CC(CC4)[C@H]32)cc1 (stereo partly specified)
TGI [1]: > 100 µM
TGI [2]: > 100 µM
TGI [3]: > 100 µM
TGI [4]: > 100 µM
TGI [5]: > 100 µM
TGI [6]: 99.2 µM
TGI [7]: > 100 µM
TGI [8]: > 100 µM
TGI [9]: > 100 µM
TGI [11]: > 100 µM
TGI [12]: > 100 µM
TGI [13]: > 100 µM
TGI [14]: > 100 µM
TGI [15]: > 100 µM
TGI [57]: > 100 µM
TGI [16]: > 100 µM
TGI [17]: > 100 µM
TGI [18]: > 100 µM
TGI [20]: > 100 µM
TGI [21]: > 100 µM
TGI [22]: > 100 µM
TGI [23]: > 100 µM
TGI [24]: > 100 µM
TGI [25]: > 100 µM
TGI [26]: > 100 µM
TGI [58]: 77.4 µM
TGI [27]: > 100 µM
TGI [28]: > 100 µM
TGI [29]: > 100 µM
TGI [30]: > 100 µM
TGI [31]: > 100 µM
TGI [32]: > 100 µM
TGI [33]: 76.1 µM
TGI [34]: > 100 µM
TGI [35]: > 100 µM
TGI [36]: > 100 µM
TGI [37]: > 100 µM
TGI [59]: > 100 µM
TGI [38]: > 100 µM
TGI [39]: > 100 µM
TGI [40]: > 100 µM
TGI [41]: > 100 µM
TGI [43]: > 100 µM
TGI [44]: > 100 µM
TGI [45]: 88 µM
TGI [47]: > 100 µM
TGI [48]: > 100 µM
TGI [49]: > 100 µM
TGI [50]: > 100 µM
TGI [51]: > 100 µM
TGI [52]: > 100 µM
TGI [53]: > 100 µM
TGI [54]: > 100 µM
TGI [55]: > 100 µM
TGI [56]: > 100 µM

Source: PubChem BioAssay (NCI)
